The values below come from patent US20220331442A1, “ANTIBODY-BIOMOLECULE CONJUGATES LINKED THROUGH MULTIFUNCTIONAL MACROMOLECULE AND USES THEREOF” (LEVIM BIOTECH LLP, priority 2018, published 2022).

The subject of one data set is H23 NSCLC cells. As to the kind of experiment: MTT cytotoxicity assay. The class given is cell-based. The note with it: gefitinib alone, up to a concentration of 25 μM, FIG. 21(b).
The next data set is described as follows: MTT cytotoxicity assay. Format: cell-based. The settings on record: human, H23 NSCLC cells; gefitinib alone at 50 μM, FIG. 21(b); read-out: Loss of viability of H23 cells. For orientation: Formazan colour is commonly taken as a measure of viable cells.

On to `COc1cc2ncnc(Nc3ccc(F)c(Cl)c3)c2cc1OCCCN1CCOCC1` [gefitinib], for which the “Cytotoxicity (MTT)” value in the data set with H23 NSCLC cells is reported as “no toxicity”. Besides, the cytotoxicity at 50 μM in the data set “MTT cytotoxicity assay” came to 70%.
